US5358951A, “Angiotensin II receptor blocking 2, 3, 6 substituted quinazolinones” (American Cyanamid Company, priority 1993, dated 1994)

Test system: vasopressor response of angiotensin II
Assay: AII Challenge: antagonism of angiotensin II vasopressor response;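 as to Response Average Change: post-dose Angiotensin II-evoked rise in systolic blood pressure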
Assay type: in vivo
Conditions: for inhibition in vivo at 3 mg/kg / inhibition in vivo at 10 mg/kg / inhibition in vivo at 5 mg/kg: Rattus norvegicus; for inhibition in vivo at 3 mg/kg / inhibition in vivo at 10 mg/kg: iv; for inhibition in vivo at 5 mg/kg: po
Description: Conscious Male Okamoto-Aoki SHR, 16-20 weeks old, weighing approximately 330 g are purchased from Charles River Labs (Wilmington, Mass.). Conscious rats are restrained in a supine position with elastic tape. The area at the base of the tail is locally anesthetized by subcutaneous infiltration with 2% procaine. The ventral caudal artery and vein are isolated, and a cannula made of polyethylene (PE) 10-20 tubing (fused together by heat) is passed into the lower abdominal aorta and vena cava, respectively. The cannula is secured, heparinized (1,000 I.U./ml), sealed and the wound is closed. The animals are placed in plastic restraining cages in an upright position. The cannula is attached to a Statham P23 Db pressure transducer, and pulsatile blood pressure is recorded to 10-15 minutes with a Gould Brush recorder. (Chan et al., (Drug Development Res., 18:75-94, 1989). Angiotensin II (human sequence, Sigma Chem. Co., St. Louis, Mo.) of 0.05 and 0.1 ug/kg i.v. is injected into all rats (predosing response). Then a test compound, vehicle or a known angiotensin II antagonist is administered i.v., i.p. or orally to each set of rats. The two doses of angiotensin II are given to each rat again at 30, 60, 90, 120, 180, 240 and 300 minutes post dosing the compound or vehicle. The vasopressor response of angiotensin II is measured for the increase in systolic blood pressure in mmHg. The percentage of antagonism or blockade of the vasopressor response of angiotensin II by a compound is calculated using the vasopressor response (increase in systolic blood pressure) of angiotensin II of each rat predosing the compound as 100%.

[1] = 0.5 h, 3 mg/kg I.V., AII 0.05 mcg/kg IV, 30 min post dose
[2] = 0.5 h, 3 mg/kg I.V., AII 0.1 mcg/kg IV, 30 min post dose
[3] = 1 h, 3 mg/kg I.V., AII 0.05 mcg/kg IV, 60 min post dose
[4] = 1 h, 3 mg/kg I.V., AII 0.1 mcg/kg IV, 60 min post dose
[5] = 2 h, 3 mg/kg I.V., AII 0.05 mcg/kg IV, 120 min post dose
[6] = 2 h, 3 mg/kg I.V., AII 0.1 mcg/kg IV, 120 min post dose
[7] = 3 h, 3 mg/kg I.V., AII 0.1 mcg/kg IV, 180 min post dose
[8] = […], 3 mg/kg I.V., AII 0.05 mcg/kg IV, 90 min post dose

## CCCCc1nc2ccc([C@@H]3C[C@H]4CCCCN4O3)cc2c(=O)n1Cc1ccc(-c2ccccc2-c2nnn[nH]2)cc1 (relative stereo) [Example 60, (Cis)-2-Butyl-6-(hexahydro-2H-isoxazolo[2,3-a]pyridin-2-yl)-3-[[2'-(1H-tetrazol-5-yl)-[1,1'-biphenyl]-4-yl]methyl]-4(3H)-quinazolinone]
3 mg/kg I.V., AII 0.05 mcg/kg IV, 240 min post dose
  Response Average Change: 15 mmHg
3 mg/kg I.V., AII 0.05 mcg/kg IV, 300 min post dose
  Response Average Change: 15 mmHg
3 mg/kg I.V., AII 0.1 mcg/kg IV, 240 min post dose
  Response Average Change: 18.5 mmHg
3 mg/kg I.V., AII 0.1 mcg/kg IV, 300 min post dose
  Response Average Change: 30 mmHg
10 mg/kg I.V., AII 0.05 mcg/kg IV, 30 min post dose
  Response Average Change: 0 mmHg
10 mg/kg I.V., AII 0.05 mcg/kg IV, 60 min post dose
  Response Average Change: 7.5 mmHg
10 mg/kg I.V., AII 0.05 mcg/kg IV, 90 min post dose
  Response Average Change: 14 mmHg
10 mg/kg I.V., AII 0.05 mcg/kg IV, 120 min post dose
  Response Average Change: 9.5 mmHg
10 mg/kg I.V., AII 0.05 mcg/kg IV, 180 min post dose
  Response Average Change: 12.5 mmHg
10 mg/kg I.V., AII 0.05 mcg/kg IV, 240 min post dose
  Response Average Change: 17 mmHg
10 mg/kg I.V., AII 0.05 mcg/kg IV, 300 min post dose
  Response Average Change: 12.5 mmHg
10 mg/kg I.V., AII 0.1 mcg/kg IV, 30 min post dose
  Response Average Change: 0 mmHg
10 mg/kg I.V., AII 0.1 mcg/kg IV, 60 min post dose
  Response Average Change: 7.5 mmHg
10 mg/kg I.V., AII 0.1 mcg/kg IV, 90 min post dose
  Response Average Change: 15 mmHg
10 mg/kg I.V., AII 0.1 mcg/kg IV, 120 min post dose
  Response Average Change: 12.5 mmHg
10 mg/kg I.V., AII 0.1 mcg/kg IV, 180 min post dose
  Response Average Change: 21.5 mmHg
10 mg/kg I.V., AII 0.1 mcg/kg IV, 240 min post dose
  Response Average Change: 12.5 mmHg
10 mg/kg I.V., AII 0.1 mcg/kg IV, 300 min post dose
  Response Average Change: 22.5 mmHg
[1]
  inhibition in vivo at 3 mg/kg: 80%
[2]
  inhibition in vivo at 3 mg/kg: 69%
0.5 h, 10 mg/kg I.V., AII 0.05 mcg/kg IV, 30 min post dose
  inhibition in vivo at 10 mg/kg: 100%
0.5 h, 10 mg/kg I.V., AII 0.1 mcg/kg IV, 30 min post dose
  inhibition in vivo at 10 mg/kg: 100%
[3]
  inhibition in vivo at 3 mg/kg: 73%
[4]
  inhibition in vivo at 3 mg/kg: 79%
1 h, 10 mg/kg I.V., AII 0.05 mcg/kg IV, 60 min post dose
  inhibition in vivo at 10 mg/kg: 82%
1 h, 10 mg/kg I.V., AII 0.1 mcg/kg IV, 60 min post dose
  inhibition in vivo at 10 mg/kg: 85%
[5]
  inhibition in vivo at 3 mg/kg: 73%
[6]
  inhibition in vivo at 3 mg/kg: 56%
2 h, 10 mg/kg I.V., AII 0.05 mcg/kg IV, 120 min post dose
  inhibition in vivo at 10 mg/kg: 77%
2 h, 10 mg/kg I.V., AII 0.1 mcg/kg IV, 120 min post dose
  inhibition in vivo at 10 mg/kg: 74%
[7]
  inhibition in vivo at 3 mg/kg: 44%
3 h, 10 mg/kg I.V., AII 0.05 mcg/kg IV, 180 min post dose
  inhibition in vivo at 10 mg/kg: 70%
3 h, 10 mg/kg I.V., AII 0.1 mcg/kg IV, 180 min post dose
  inhibition in vivo at 10 mg/kg: 56%
4 h, 3 mg/kg I.V., AII 0.05 mcg/kg IV, 240 min post dose
  inhibition in vivo at 3 mg/kg: 59%
4 h, 3 mg/kg I.V., AII 0.1 mcg/kg IV, 240 min post dose
  inhibition in vivo at 3 mg/kg: 49%
4 h, 10 mg/kg I.V., AII 0.05 mcg/kg IV, 240 min post dose
  inhibition in vivo at 10 mg/kg: 59%
4 h, 10 mg/kg I.V., AII 0.1 mcg/kg IV, 240 min post dose
  inhibition in vivo at 10 mg/kg: 74%
5 h, 3 mg/kg I.V., AII 0.05 mcg/kg IV, 300 min post dose
  inhibition in vivo at 3 mg/kg: 59%
5 h, 3 mg/kg I.V., AII 0.1 mcg/kg IV, 300 min post dose
  inhibition in vivo at 3 mg/kg: 18%
5 h, 10 mg/kg I.V., AII 0.05 mcg/kg IV, 300 min post dose
  inhibition in vivo at 10 mg/kg: 70%
5 h, 10 mg/kg I.V., AII 0.1 mcg/kg IV, 300 min post dose
  inhibition in vivo at 10 mg/kg: 54%
[8]
  inhibition in vivo at 3 mg/kg: 73%
[…], 10 mg/kg I.V., AII 0.05 mcg/kg IV, 90 min post dose
  inhibition in vivo at 10 mg/kg: 66%
[…], 10 mg/kg I.V., AII 0.1 mcg/kg IV, 90 min post dose
  inhibition in vivo at 10 mg/kg: 69%

## CCCCc1nc2ccc([C@@H]3C[C@H]4CCC(C)(C)N4O3)cc2c(=O)n1Cc1ccc(-c2ccccc2-c2nnn[nH]2)cc1 (relative stereo) [Example 61, (Cis)-2-Butyl-6-(hexahydro-6,6-dimethylpyrrolo[1,2-b]isoxazol-2-yl)-3-[[2'-(1H-tetrazol-5-yl][1,1'-biphenyl]-4-yl]methyl]-4(3H)-quinazolinone]
3 mg/kg I.V., AII 0.05 mcg/kg IV, 30 min post dose
  Response Average Change: 7.5 mmHg
3 mg/kg I.V., AII 0.05 mcg/kg IV, 60 min post dose
  Response Average Change: 10 mmHg
3 mg/kg I.V., AII 0.05 mcg/kg IV, 90 min post dose
  Response Average Change: 6 mmHg
3 mg/kg I.V., AII 0.05 mcg/kg IV, 120 min post dose
  Response Average Change: 13.5 mmHg
3 mg/kg I.V., AII 0.05 mcg/kg IV, 180 min post dose
  Response Average Change: 15 mmHg
3 mg/kg I.V., AII 0.1 mcg/kg IV, 30 min post dose
  Response Average Change: 7.5 mmHg
3 mg/kg I.V., AII 0.1 mcg/kg IV, 60 min post dose
  Response Average Change: 12.5 mmHg
3 mg/kg I.V., AII 0.1 mcg/kg IV, 90 min post dose
  Response Average Change: 3.5 mmHg
3 mg/kg I.V., AII 0.1 mcg/kg IV, 120 min post dose
  Response Average Change: 15 mmHg
3 mg/kg I.V., AII 0.1 mcg/kg IV, 180 min post dose
  Response Average Change: 16 mmHg
5 mg/kg P.O., AII 0.05 mcg/kg IV, 30 min post dose
  Response Average Change: 27.5 mmHg
5 mg/kg P.O., AII 0.05 mcg/kg IV, 60 min post dose
  Response Average Change: 29 mmHg
5 mg/kg P.O., AII 0.05 mcg/kg IV, 90 min post dose
  Response Average Change: 30 mmHg
5 mg/kg P.O., AII 0.05 mcg/kg IV, 120 min post dose
  Response Average Change: 22.5 mmHg
5 mg/kg P.O., AII 0.05 mcg/kg IV, 180 min post dose
  Response Average Change: 35 mmHg
5 mg/kg P.O., AII 0.1 mcg/kg IV, 30 min post dose
  Response Average Change: 32.5 mmHg
5 mg/kg P.O., AII 0.1 mcg/kg IV, 60 min post dose
  Response Average Change: 35 mmHg
5 mg/kg P.O., AII 0.1 mcg/kg IV, 90 min post dose
  Response Average Change: 29 mmHg
5 mg/kg P.O., AII 0.1 mcg/kg IV, 120 min post dose
  Response Average Change: 30 mmHg
5 mg/kg P.O., AII 0.1 mcg/kg IV, 180 min post dose
  Response Average Change: 35 mmHg
[1]
  inhibition in vivo at 3 mg/kg: 83%
[2]
  inhibition in vivo at 3 mg/kg: 84%
[3]
  inhibition in vivo at 3 mg/kg: 78%
[4]
  inhibition in vivo at 3 mg/kg: 73%
[5]
  inhibition in vivo at 3 mg/kg: 70%
[6]
  inhibition in vivo at 3 mg/kg: 67%
3 h, 3 mg/kg I.V., AII 0.05 mcg/kg IV, 180 min post dose
  inhibition in vivo at 3 mg/kg: 67%
[7]
  inhibition in vivo at 3 mg/kg: 65%
[8]
  inhibition in vivo at 3 mg/kg: 87%
[…], 3 mg/kg I.V., AII 0.1 mcg/kg IV, 90 min post dose
  inhibition in vivo at 3 mg/kg: 92%
0.5 h, 5 mg/kg P.O., AII 0.05 mcg/kg IV, 30 min post dose
  inhibition in vivo at 5 mg/kg: 40%
0.5 h, 5 mg/kg P.O., AII 0.1 mcg/kg IV, 30 min post dose
  inhibition in vivo at 5 mg/kg: 31%
1 h, 5 mg/kg P.O., AII 0.05 mcg/kg IV, 60 min post dose
  inhibition in vivo at 5 mg/kg: 37%
1 h, 5 mg/kg P.O., AII 0.1 mcg/kg IV, 60 min post dose
  inhibition in vivo at 5 mg/kg: 26%
2 h, 5 mg/kg P.O., AII 0.05 mcg/kg IV, 120 min post dose
  inhibition in vivo at 5 mg/kg: 51%
2 h, 5 mg/kg P.O., AII 0.1 mcg/kg IV, 120 min post dose
  inhibition in vivo at 5 mg/kg: 36%
3 h, 5 mg/kg P.O., AII 0.05 mcg/kg IV, 180 min post dose
  inhibition in vivo at 5 mg/kg: 24%
3 h, 5 mg/kg P.O., AII 0.1 mcg/kg IV, 180 min post dose
  inhibition in vivo at 5 mg/kg: 26%
[…], 5 mg/kg P.O., AII 0.05 mcg/kg IV, 90 min post dose
  inhibition in vivo at 5 mg/kg: 35%
[…], 5 mg/kg P.O., AII 0.1 mcg/kg IV, 90 min post dose
  inhibition in vivo at 5 mg/kg: 38%
